Reference: patent US10858364B2, “Imidazopyrazine inhibitors of Bruton's tyrosine kinase” (Acerta Pharma B.V., priority 2016, dated 2020)

Assays:
[1] = Clinical pharmacokinetics of acalabrutinib and its major metabolite; format: in vivo, human
From the text: The compound of Formula (I) was identified as the major metabolite in plasma with a geometric mean exposure (AUC) approximately 2- to 3-fold higher than the exposure of acalabrutinib.
Acalabrutinib and the major metabolite form a covalent bond with a cysteine residue in the BTK active site, leading to inhibition of BTK enzymatic activity. Acalabrutinib binding with the cysteine residue occurs rapidly and irreversibly and provides high target occupancy at steady state.

CYP3A4/5 = experiment: CYP inhibition, CYP3A4/5; format: in vitro ADME
CYP2C8 = CYP2C8 (Homo sapiens (Human), UniProt P10632); experiment: CYP inhibition, CYP2C8; format: in vitro ADME
CYP2C9 = CYP2C9 (Homo sapiens (Human), UniProt P11712); experiment: CYP inhibition, CYP2C9; format: in vitro ADME
CYP2B6 [2] = biological target: CYP2B6 (Homo sapiens (Human), UniProt P20813); experiment: CYP inhibition, CYP2B6; format: in vitro ADME
CYP2C19 = CYP2C19 (Homo sapiens (Human), UniProt P33261); experiment: CYP inhibition, CYP2C19; format: in vitro ADME
CYP2D6 = CYP2D6 (Homo sapiens (Human), UniProt P10635); experiment: CYP inhibition, CYP2D6; format: in vitro ADME
CYP1A2 [3] = experiment: CYP induction, CYP1A2; format: in vitro ADME
CYP2B6 [4] = experiment: CYP induction, CYP2B6; format: in vitro ADME
CYP3A4 = experiment: CYP induction, CYP3A4; format: in vitro ADME
CYP3A enzymes = experiment: In vitro metabolism studies; format: in vitro ADME
CYP1A2 [5] = biological target: CYP1A2 (Homo sapiens (Human), UniProt P05177)
Chain of CYP1A2 (Homo sapiens (Human), UniProt P05177) (P05177 whole entry): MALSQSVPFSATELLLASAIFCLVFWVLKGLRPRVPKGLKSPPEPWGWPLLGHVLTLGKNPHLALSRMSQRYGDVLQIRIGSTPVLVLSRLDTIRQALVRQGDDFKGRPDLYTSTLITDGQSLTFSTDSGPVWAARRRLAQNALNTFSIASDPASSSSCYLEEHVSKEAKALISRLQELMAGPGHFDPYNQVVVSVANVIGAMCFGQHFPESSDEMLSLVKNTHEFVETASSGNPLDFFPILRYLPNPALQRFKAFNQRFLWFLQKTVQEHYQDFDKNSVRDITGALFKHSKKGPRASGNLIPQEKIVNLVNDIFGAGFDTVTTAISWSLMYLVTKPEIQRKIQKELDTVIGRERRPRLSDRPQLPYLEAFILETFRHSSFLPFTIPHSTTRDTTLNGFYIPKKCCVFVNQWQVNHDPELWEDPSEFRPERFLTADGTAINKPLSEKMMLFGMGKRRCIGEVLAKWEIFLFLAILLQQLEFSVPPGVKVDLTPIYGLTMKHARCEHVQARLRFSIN

Chain of CYP2C19 (P33261 whole entry): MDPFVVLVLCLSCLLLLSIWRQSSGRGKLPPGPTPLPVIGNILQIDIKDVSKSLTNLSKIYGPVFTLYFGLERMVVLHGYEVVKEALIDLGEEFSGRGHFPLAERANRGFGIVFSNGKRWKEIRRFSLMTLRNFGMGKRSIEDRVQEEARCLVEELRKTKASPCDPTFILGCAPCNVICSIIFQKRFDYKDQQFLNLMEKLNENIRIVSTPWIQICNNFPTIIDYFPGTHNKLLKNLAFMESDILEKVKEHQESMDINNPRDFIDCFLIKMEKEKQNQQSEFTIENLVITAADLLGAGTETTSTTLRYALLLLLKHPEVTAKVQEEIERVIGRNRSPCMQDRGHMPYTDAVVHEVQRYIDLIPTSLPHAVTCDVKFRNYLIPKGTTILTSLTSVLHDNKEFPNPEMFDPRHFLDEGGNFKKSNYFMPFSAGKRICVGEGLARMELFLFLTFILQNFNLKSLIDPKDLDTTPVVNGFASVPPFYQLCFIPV
Chain of CYP2D6 (P10635 whole entry): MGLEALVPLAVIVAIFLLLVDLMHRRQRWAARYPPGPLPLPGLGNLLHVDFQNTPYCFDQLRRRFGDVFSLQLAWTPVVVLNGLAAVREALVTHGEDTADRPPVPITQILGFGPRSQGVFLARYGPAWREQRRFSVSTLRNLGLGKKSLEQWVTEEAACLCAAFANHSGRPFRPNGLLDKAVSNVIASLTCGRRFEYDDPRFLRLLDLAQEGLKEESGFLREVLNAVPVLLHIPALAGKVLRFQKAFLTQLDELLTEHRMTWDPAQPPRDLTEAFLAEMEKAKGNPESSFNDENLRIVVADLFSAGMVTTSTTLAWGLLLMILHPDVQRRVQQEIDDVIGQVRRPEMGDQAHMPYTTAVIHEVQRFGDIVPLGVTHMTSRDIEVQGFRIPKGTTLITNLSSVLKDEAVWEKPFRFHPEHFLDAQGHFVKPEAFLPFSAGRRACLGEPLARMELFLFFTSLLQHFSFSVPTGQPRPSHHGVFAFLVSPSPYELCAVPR
Chain of CYP2B6 (Homo sapiens (Human), UniProt P20813) (P20813 whole entry): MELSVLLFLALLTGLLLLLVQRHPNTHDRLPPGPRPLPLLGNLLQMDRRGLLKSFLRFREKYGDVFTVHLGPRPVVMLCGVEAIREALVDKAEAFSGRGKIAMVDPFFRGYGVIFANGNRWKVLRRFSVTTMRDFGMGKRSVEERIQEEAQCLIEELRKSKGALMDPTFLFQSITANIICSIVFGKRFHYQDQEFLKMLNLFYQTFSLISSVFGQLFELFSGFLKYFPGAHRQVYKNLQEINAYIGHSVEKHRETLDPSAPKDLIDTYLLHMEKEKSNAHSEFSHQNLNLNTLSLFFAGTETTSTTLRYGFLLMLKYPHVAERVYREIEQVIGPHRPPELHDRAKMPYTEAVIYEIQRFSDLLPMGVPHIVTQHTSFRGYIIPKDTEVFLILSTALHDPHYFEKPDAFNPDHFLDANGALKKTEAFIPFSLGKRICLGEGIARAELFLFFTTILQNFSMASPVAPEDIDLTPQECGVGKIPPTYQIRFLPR
Chain of CYP2C9 (P11712 whole entry): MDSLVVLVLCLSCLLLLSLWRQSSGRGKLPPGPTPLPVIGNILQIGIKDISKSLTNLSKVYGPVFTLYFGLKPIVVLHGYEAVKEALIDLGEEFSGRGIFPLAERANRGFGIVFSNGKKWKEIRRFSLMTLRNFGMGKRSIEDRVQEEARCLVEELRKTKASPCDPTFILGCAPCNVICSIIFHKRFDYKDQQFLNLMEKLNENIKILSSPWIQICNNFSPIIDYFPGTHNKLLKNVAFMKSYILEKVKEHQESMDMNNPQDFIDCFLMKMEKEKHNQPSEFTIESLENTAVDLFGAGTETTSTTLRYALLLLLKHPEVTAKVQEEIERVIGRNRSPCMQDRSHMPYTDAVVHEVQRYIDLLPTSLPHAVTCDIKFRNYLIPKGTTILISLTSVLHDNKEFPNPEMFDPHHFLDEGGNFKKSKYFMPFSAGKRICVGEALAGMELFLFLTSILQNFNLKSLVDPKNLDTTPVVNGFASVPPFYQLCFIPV
Chain of CYP2C8 (P10632 whole entry): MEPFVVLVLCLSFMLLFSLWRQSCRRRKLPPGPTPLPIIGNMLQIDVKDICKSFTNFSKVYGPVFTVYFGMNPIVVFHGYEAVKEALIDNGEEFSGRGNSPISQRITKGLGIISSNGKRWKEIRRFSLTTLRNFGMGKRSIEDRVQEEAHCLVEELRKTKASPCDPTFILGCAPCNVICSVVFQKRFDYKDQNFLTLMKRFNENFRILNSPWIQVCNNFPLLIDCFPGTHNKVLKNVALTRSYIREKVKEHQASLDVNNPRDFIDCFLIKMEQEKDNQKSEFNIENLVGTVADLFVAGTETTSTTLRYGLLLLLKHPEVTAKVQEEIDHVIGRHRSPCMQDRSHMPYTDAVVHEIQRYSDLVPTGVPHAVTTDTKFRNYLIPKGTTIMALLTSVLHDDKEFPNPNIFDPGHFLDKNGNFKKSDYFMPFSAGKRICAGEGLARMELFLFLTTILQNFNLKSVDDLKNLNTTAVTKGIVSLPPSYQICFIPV

CC#CC(=O)N1CCC[C@H]1c1nc(-c2ccc(C(=O)Nc3ccccn3)cc2)c2c(N)nccn12 [acalabrutinib, reference compound]
half-life ([1]; human, in vivo, single oral dose of 100 mg acalabrutinib, read-out: median terminal elimination half-life (t½) (converted)): 54 min
mean apparent oral clearance (CL/F) ([1]; population pharmacokinetics analysis): 159 L/h
CYP3A4/5 inhibition (CYP3A4/5): weak inhibitor
CYP2C8 inhibition (CYP2C8): weak inhibitor
CYP2C9 inhibition (CYP2C9): weak inhibitor
CYP2B6 inhibition (CYP2B6 [2]): does not inhibit
CYP2C19 inhibition (CYP2C19): does not inhibit
CYP2D6 inhibition (CYP2D6): does not inhibit
CYP1A2 induction (CYP1A2 [3]): weak inducer
CYP2B6 induction (CYP2B6 [4]): weak inducer
CYP3A4 induction (CYP3A4): weak inducer
metabolic route (CYP3A enzymes): predominantly metabolized by CYP3A enzymes
CYP1A2 inhibition (CYP1A2 [5]): does not inhibit
